Source: ChEMBL document CHEMBL5576134, “Targeting Pancreatic Cancer with Novel Nicolaioidesin C Derivatives: Molecular Mechanism, In Vitro, and In Vivo Evaluations” (J Med Chem, 2024)

Legend:
MIA PaCa-2 [1] = test: Preferential cytotoxicity against human MIA PaCa-2 cells in nutrient-deprived medium measured after 24 hrs by WST-8 cell counting analysis; assay type: functional
MIA PaCa-2 [2] = test: Preferential cytotoxicity against human MIA PaCa-2 cells in DMEM measured after 24 hrs by WST-8 cell counting analysis; assay type: functional, cell-based; details: MIA PaCa-2, 24 h
[3] = Selectivity index, ratio of IC50 for preferential cytotoxicity against human MIA PaCa-2 cells in DMEM to PC50 for preferential cytotoxicity against human MIA PaCa-2 cells in nutrient-deprived medium; assay type: functional
PANC-1 [4] = test: Preferential cytotoxicity against human PANC-1 cells in nutrient-deprived medium measured after 24 hrs by WST-8 cell counting analysis; assay type: functional
PANC-1 [5] = test: Preferential cytotoxicity against human PANC-1 cells in DMEM measured after 24 hrs by WST-8 cell counting analysis; assay type: functional, cell-based; details: PANC-1, 24 h
[6] = Selectivity index, ratio of IC50 for preferential cytotoxicity against human PANC-1 cells in DMEM to PC50 for preferential cytotoxicity against human PANC-1 cells in nutrient-deprived medium; assay type: functional

COc1cc(O)c(C(=O)[C@H]2CC=C(CCC=C(C)C)C[C@@H]2c2cc(F)cc(F)c2)c(O)c1
PC50 (MIA PaCa-2 [1]): 0.79 µM
IC50 (MIA PaCa-2 [2]): 17.9 µM
Selectivity Index [3]: 22.6
PC50 (PANC-1 [4]): 0.73 µM
IC50 (PANC-1 [5]): 13.5 µM
Selectivity Index [6]: 18.6

COc1cc(O)c(C(=O)[C@H]2CC=C(CCC=C(C)C)C[C@@H]2c2ccccc2)c(O)c1
PC50 (MIA PaCa-2 [1]): 2.76 µM
IC50 (MIA PaCa-2 [2]): 61.4 µM
Selectivity Index [3]: 22.3
PC50 (PANC-1 [4]): 0.55 µM
IC50 (PANC-1 [5]): 25.3 µM
Selectivity Index [6]: 46.3

COc1cccc(O)c1C(=O)[C@H]1CC=C(CCC=C(C)C)C[C@@H]1c1ccccc1
PC50 (MIA PaCa-2 [1]): 31.8 µM
IC50 (MIA PaCa-2 [2]): > 100 µM
PC50 (PANC-1 [4]): 3.3 µM
IC50 (PANC-1 [5]): 33.9 µM
Selectivity Index [6]: 10.3

CC(C)=CCCC1=CC[C@H](C(=O)c2c(O)cccc2O)[C@@H](c2cc(F)ccc2F)C1 (relative stereo)
PC50 (MIA PaCa-2 [1]): 0.77 µM
IC50 (MIA PaCa-2 [2]): 20.8 µM
Selectivity Index [3]: 26.9
PC50 (PANC-1 [4]): 0.53 µM
IC50 (PANC-1 [5]): 11.2 µM
Selectivity Index [6]: 21.1

CC(C)=CCCC1=CC[C@H](C(=O)c2c(O)cccc2O)[C@@H](c2ccc(F)cc2F)C1 (relative stereo)
PC50 (MIA PaCa-2 [1]): 0.34 µM
IC50 (MIA PaCa-2 [2]): 11.1 µM
Selectivity Index [3]: 32.6
PC50 (PANC-1 [4]): 0.27 µM
IC50 (PANC-1 [5]): 7.18 µM
Selectivity Index [6]: 26.1

COc1cc(O)c(C(=O)[C@H]2CC=C(CCC=C(C)C)C[C@@H]2c2cccc(F)c2F)c(O)c1 (relative stereo)
PC50 (MIA PaCa-2 [1]): 1.01 µM
IC50 (MIA PaCa-2 [2]): 33.8 µM
Selectivity Index [3]: 33.4
PC50 (PANC-1 [4]): 0.64 µM
IC50 (PANC-1 [5]): 24.4 µM
Selectivity Index [6]: 38

CC(C)=CCCC1=CC[C@H](C(=O)c2c(O)cccc2O)[C@@H](c2ccccc2F)C1 (relative stereo)
PC50 (MIA PaCa-2 [1]): 0.84 µM
IC50 (MIA PaCa-2 [2]): 25 µM
Selectivity Index [3]: 29.6
PC50 (PANC-1 [4]): 0.47 µM
IC50 (PANC-1 [5]): 13.8 µM
Selectivity Index [6]: 29.5

COc1cc(O)c(C(=O)[C@H]2CC=C(CCC=C(C)C)C[C@@H]2c2ccc(C)cc2)c(O)c1 (relative stereo)
PC50 (MIA PaCa-2 [1]): 3.65 µM
IC50 (MIA PaCa-2 [2]): 93.3 µM
Selectivity Index [3]: 25.5
PC50 (PANC-1 [4]): 0.56 µM
IC50 (PANC-1 [5]): > 100 µM

CC(C)=CCCC1=CC[C@H](C(=O)c2c(O)cccc2O)[C@@H](c2ccc(F)c(F)c2)C1 (relative stereo)
PC50 (MIA PaCa-2 [1]): 0.68 µM
IC50 (MIA PaCa-2 [2]): 23.1 µM
Selectivity Index [3]: 33.8
PC50 (PANC-1 [4]): 0.33 µM
IC50 (PANC-1 [5]): 11 µM
Selectivity Index [6]: 33.5

COc1cccc(OC)c1C(=O)[C@H]1CC=C(CCC=C(C)C)C[C@@H]1c1ccccc1 (relative stereo)
PC50 (MIA PaCa-2 [1]): 13.6 µM
IC50 (MIA PaCa-2 [2]): > 100 µM
PC50 (PANC-1 [4]): 1.66 µM
IC50 (PANC-1 [5]): 40 µM
Selectivity Index [6]: 24.1

CC(C)=CCCC1=CC[C@H](C(=O)c2c(O)cccc2O)[C@@H](c2cccc(Cl)c2)C1 (relative stereo)
PC50 (MIA PaCa-2 [1]): 1.09 µM
IC50 (MIA PaCa-2 [2]): 29.1 µM
Selectivity Index [3]: 26.8
PC50 (PANC-1 [4]): 0.85 µM
IC50 (PANC-1 [5]): 14.8 µM
Selectivity Index [6]: 17.4

CC(C)=CCCC1=CC[C@H](C(=O)c2c(O)cccc2O)[C@@H](c2ccc(Cl)cc2Cl)C1 (relative stereo)
PC50 (MIA PaCa-2 [1]): 0.78 µM
IC50 (MIA PaCa-2 [2]): 22.2 µM
Selectivity Index [3]: 28.6
PC50 (PANC-1 [4]): 0.43 µM
IC50 (PANC-1 [5]): 10 µM
Selectivity Index [6]: 23.5

COc1cc(O)c(C(=O)[C@H]2CC=C(CCC=C(C)C)C[C@@H]2c2ccc(F)cc2F)c(O)c1 (relative stereo)
PC50 (MIA PaCa-2 [1]): 0.63 µM
IC50 (MIA PaCa-2 [2]): 20.2 µM
Selectivity Index [3]: 32
PC50 (PANC-1 [4]): 0.97 µM
IC50 (PANC-1 [5]): 21 µM
Selectivity Index [6]: 21.6

COc1ccc([C@H]2CC(CCC=C(C)C)=CC[C@@H]2C(=O)c2c(O)cccc2O)cc1 (relative stereo)
PC50 (MIA PaCa-2 [1]): 4.73 µM
IC50 (MIA PaCa-2 [2]): > 100 µM
PC50 (PANC-1 [4]): 1.08 µM
IC50 (PANC-1 [5]): 56.7 µM
Selectivity Index [6]: 52.8

COc1cc(O)c(C(=O)[C@H]2CC=C(CCC=C(C)C)C[C@@H]2c2cccc(F)c2)c(O)c1 (relative stereo)
PC50 (MIA PaCa-2 [1]): 1.21 µM
IC50 (MIA PaCa-2 [2]): 39.9 µM
Selectivity Index [3]: 32.9
PC50 (PANC-1 [4]): 1.16 µM
IC50 (PANC-1 [5]): 29.6 µM
Selectivity Index [6]: 25.6

CC(C)=CCCC1=CC[C@H](C(=O)c2c(O)cccc2O)[C@@H](c2cc(F)cc(F)c2)C1 (relative stereo)
PC50 (MIA PaCa-2 [1]): 0.75 µM
IC50 (MIA PaCa-2 [2]): 19.7 µM
Selectivity Index [3]: 26.2
PC50 (PANC-1 [4]): 0.33 µM
IC50 (PANC-1 [5]): 10.5 µM
Selectivity Index [6]: 31.6

CC(C)=CCCC1=CC[C@H](C(=O)c2c(O)cccc2O)[C@@H](c2ccccc2Cl)C1 (relative stereo)
PC50 (MIA PaCa-2 [1]): 1.08 µM
IC50 (MIA PaCa-2 [2]): 29 µM
Selectivity Index [3]: 26.7
PC50 (PANC-1 [4]): 0.69 µM
IC50 (PANC-1 [5]): 15.4 µM
Selectivity Index [6]: 22.2

COc1cc(O)c(C(=O)[C@H]2CC=C(CCC=C(C)C)C[C@@H]2c2ccc(Cl)cc2)c(O)c1 (relative stereo)
PC50 (MIA PaCa-2 [1]): 3.02 µM
IC50 (MIA PaCa-2 [2]): 71.9 µM
Selectivity Index [3]: 23.8
PC50 (PANC-1 [4]): 0.41 µM
IC50 (PANC-1 [5]): 39.1 µM
Selectivity Index [6]: 94.5

CC(C)=CCCC1=CC[C@H](C(=O)c2c(O)cccc2O)[C@@H](c2ccc(Cl)cc2)C1 (relative stereo)
PC50 (MIA PaCa-2 [1]): 1.3 µM
IC50 (MIA PaCa-2 [2]): 32.6 µM
Selectivity Index [3]: 25
PC50 (PANC-1 [4]): 0.68 µM
IC50 (PANC-1 [5]): 86 µM
Selectivity Index [6]: 126.8

CC(C)=CCCC1=CC[C@H](C(=O)c2c(O)cccc2O)[C@@H](c2cccc(F)c2)C1 (relative stereo)
PC50 (MIA PaCa-2 [1]): 1.23 µM
IC50 (MIA PaCa-2 [2]): 30.8 µM
Selectivity Index [3]: 25.1
PC50 (PANC-1 [4]): 1.43 µM
IC50 (PANC-1 [5]): 16 µM
Selectivity Index [6]: 11.2

COc1cc(O)c(C(=O)[C@H]2CC=C(CCC=C(C)C)C[C@@H]2c2ccc(F)cc2)c(O)c1 (relative stereo)
PC50 (MIA PaCa-2 [1]): 1.01 µM
IC50 (MIA PaCa-2 [2]): > 100 µM
PC50 (PANC-1 [4]): 0.39 µM
IC50 (PANC-1 [5]): > 100 µM

CC(C)=CCCC1=CC[C@H](C(=O)c2c(O)cccc2O)[C@@H](c2ccc(F)cc2)C1 (relative stereo)
PC50 (MIA PaCa-2 [1]): 0.89 µM
IC50 (MIA PaCa-2 [2]): 34.4 µM
Selectivity Index [3]: 38.6
PC50 (PANC-1 [4]): 0.37 µM
IC50 (PANC-1 [5]): > 100 µM

COc1cc(O)c(C(=O)[C@H]2CC=C(CCC=C(C)C)C[C@@H]2c2ccccc2F)c(O)c1 (relative stereo)
PC50 (MIA PaCa-2 [1]): 0.85 µM
IC50 (MIA PaCa-2 [2]): 33.7 µM
Selectivity Index [3]: 39.6
PC50 (PANC-1 [4]): 0.72 µM
IC50 (PANC-1 [5]): 28.5 µM
Selectivity Index [6]: 39.3

CC(C)=CCCC1=CC[C@H](C(=O)c2c(O)cccc2O)[C@@H](c2cccc(Cl)c2Cl)C1 (relative stereo)
PC50 (MIA PaCa-2 [1]): 0.62 µM
IC50 (MIA PaCa-2 [2]): 20.3 µM
Selectivity Index [3]: 32.9
PC50 (PANC-1 [4]): 0.45 µM
IC50 (PANC-1 [5]): 10.5 µM
Selectivity Index [6]: 23.5

COc1ccc([C@H]2CC(CCC=C(C)C)=CC[C@@H]2C(=O)c2c(O)cc(OC)cc2O)cc1 (relative stereo)
PC50 (MIA PaCa-2 [1]): 1.93 µM
IC50 (MIA PaCa-2 [2]): 102 µM
Selectivity Index [3]: 52.9
PC50 (PANC-1 [4]): 0.45 µM
IC50 (PANC-1 [5]): 50 µM
Selectivity Index [6]: 110

CC(C)=CCCC1=CC[C@H](C(=O)c2c(O)cccc2O)[C@@H](c2ccccc2)C1 (relative stereo)
PC50 (MIA PaCa-2 [1]): 1.79 µM
IC50 (MIA PaCa-2 [2]): 58.2 µM
Selectivity Index [3]: 32.5
PC50 (PANC-1 [4]): 0.4 µM
IC50 (PANC-1 [5]): 47.2 µM
Selectivity Index [6]: 117

COc1ccc(C(=O)[C@H]2CC=C(CCC=C(C)C)C[C@@H]2c2ccccc2)c(O)c1 (relative stereo)
PC50 (MIA PaCa-2 [1]): 59.3 µM
IC50 (MIA PaCa-2 [2]): > 100 µM
PC50 (PANC-1 [4]): 7.32 µM
IC50 (PANC-1 [5]): 24.2 µM
Selectivity Index [6]: 3.3
